From article PMC9609428, “Rational Design and Synthesis of New Selective COX-2 Inhibitors with In Vivo PGE2-Lowering Activity by Tethering Benzenesulfonamide and 1,2,3-Triazole Pharmacophores to Some NSAIDs” (Pharmaceuticals, 2022)
Several values for one entry are separate records, joined by “and”; a condition that tells them apart may be missing. Equal entries are not always repeated. Marks after values point to notes of the source that are not given here.

Experiments:
human COX-2 = molecular target: T1, human COX-2 (Homo sapiens, UniProt P35354); assay: In vitro human COX-2 enzymatic inhibitory activity (Cayman COX inhibitor screening assay kit); assay type: biochemical; settings: for SI COX-1/COX-2: COX-2 selectivity index: COX-1 IC50/COX-2 IC50; for IC50: mean ± SEM of triplicate determinations
T1 construct: purchased Cayman Chemicals Inc., Ann Arbor, MI, USA 560131
T1 sequence (P35354 18-604): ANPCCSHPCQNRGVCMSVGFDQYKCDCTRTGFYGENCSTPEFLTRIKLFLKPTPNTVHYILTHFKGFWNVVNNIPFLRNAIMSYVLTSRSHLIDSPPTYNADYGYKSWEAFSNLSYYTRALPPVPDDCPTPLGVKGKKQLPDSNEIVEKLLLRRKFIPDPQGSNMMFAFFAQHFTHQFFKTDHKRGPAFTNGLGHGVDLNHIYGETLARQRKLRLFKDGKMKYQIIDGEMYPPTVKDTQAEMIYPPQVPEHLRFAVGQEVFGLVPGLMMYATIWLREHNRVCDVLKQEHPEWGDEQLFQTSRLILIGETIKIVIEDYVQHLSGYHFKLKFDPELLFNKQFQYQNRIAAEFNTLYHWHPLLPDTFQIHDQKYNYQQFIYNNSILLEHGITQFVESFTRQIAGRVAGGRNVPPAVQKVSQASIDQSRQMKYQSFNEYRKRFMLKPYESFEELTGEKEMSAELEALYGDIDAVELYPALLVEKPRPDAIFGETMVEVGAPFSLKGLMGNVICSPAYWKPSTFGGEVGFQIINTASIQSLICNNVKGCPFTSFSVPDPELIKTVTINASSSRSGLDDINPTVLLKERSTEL
Method: (§1) Inhibitory activities were defined as a test compound concentration achieving 50% human COX-1 or human COX-2 inhibition. The selectivity of compounds was referred to as a compound’s selectivity index values calculated as IC50 (COX-1)/IC50 (COX-2).
(§2) In vitro human COX-1 and human COX-2 enzymatic inhibitory activity of the tested compounds as well as the reference drugs was carried out according to the previously mentioned procedures; for details, see Page S15, Supplementary File.
(§3) 4.2. Biological screening
(§4) 4.2.1. In vitro human COX-1 and human COX-2 enzymatic inhibitory activities In vitro human COX-1 and human COX-2 enzymatic inhibitory activity of the tested compounds as well as the reference drugs was carried out according to the previously mentioned procedures [1][2]depending on Cayman colorimetric COX (ovine) inhibitor screening assay kit (Catalog No.
(§5) All reagents, test solutions and experimental procedures were performed in correspondence to both the manufacturer’s instructions and previously reported methods. Briefly, […] of different concentrations of tested compound solutions were added to a series of supplied reaction buffer solutions (960 µL, 0.1 M Tris-HCl, pH 8.0 containing 5 mM EDTA and 2 mM phenol) with either COX-1 or COX-2 (10 µL) enzyme in the presence of heme (10 µL). 10 µL of Arachidonic Acid (100 µM) solution were added to the mixtures of the enzyme and tested compounds, After incubating for 5 min at 25 °C followed by stopping COX reaction by adding of 50 µL of 1 M HCl. Moreover, after adding 100 µL of saturated stannous chloride solution, the absorbance was measured spectrophotometrically using plate reader. measuring the […]
(§6) percentage of human COX-1 or human COX-2 enzymatic inhibition of five different concentrations of each compound and then concentration-inhibition response curve were plotted to obtain IC50 values(three determinations). […]

[1] = molecular target: T2, (Ovis aries, UniProt P05979); assay: In vitro human COX-1 enzymatic inhibitory activity (Cayman COX inhibitor screening assay kit); assay type: biochemical; settings: mean ± SEM of triplicate determinations
T2 construct: purchased Cayman Chemicals Inc., Ann Arbor, MI, USA 560131
T2 sequence (P05979 25-600): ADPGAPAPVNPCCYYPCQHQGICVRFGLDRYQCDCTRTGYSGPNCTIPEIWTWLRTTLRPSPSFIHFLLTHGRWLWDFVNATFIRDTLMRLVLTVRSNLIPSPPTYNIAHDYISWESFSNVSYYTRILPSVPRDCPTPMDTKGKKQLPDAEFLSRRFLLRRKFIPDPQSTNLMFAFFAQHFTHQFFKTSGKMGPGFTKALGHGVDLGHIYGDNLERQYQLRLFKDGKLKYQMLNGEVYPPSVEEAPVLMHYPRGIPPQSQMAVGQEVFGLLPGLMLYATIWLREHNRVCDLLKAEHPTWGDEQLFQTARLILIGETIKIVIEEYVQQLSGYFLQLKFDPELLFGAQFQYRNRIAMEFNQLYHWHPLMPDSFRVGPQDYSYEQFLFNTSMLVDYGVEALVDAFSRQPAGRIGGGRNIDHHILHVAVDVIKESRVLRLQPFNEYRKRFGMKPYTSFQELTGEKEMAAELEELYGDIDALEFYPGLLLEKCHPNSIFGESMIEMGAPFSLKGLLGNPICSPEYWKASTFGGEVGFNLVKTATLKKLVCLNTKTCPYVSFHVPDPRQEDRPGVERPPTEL
Method: as §1, §2, §3, §4, §5, §6

prostaglandin E2 (PGE2) = assay: In vivo estimation of rat serum prostaglandin E2 (PGE2); settings: carrageenan-injected rats, 10 µmol/kg b.wt po, after 8 h; for PGE2 Serum Conc.: mean ± SEM, n = 5
Method: Measuring plasma levels of prostaglandin E2 is one of the substantial parameters in confirming the in vivo COX-2 inhibition.
(approved by HU-IACUC). For more details, see Page S16, Supplementary File. […]
4.2.4. Estimation of rat serum prostaglandin E2 (PGE2) […]
procedure using EIA PGE2 kit (Aldrich, Steinheim, Germany). The kits as well as blood samples were […]
to a monoclonal antibody to PGE2 in kit. Excess reagents were removed followed by adding the substrate was added and incubated for short time. When a yellow color generate the optical density […]

[2] = system: carrageenan-induced paw edema; assay: In vivo carrageenan-induced paw edema in mice; settings: for Thickness of Edema, 0 h / percentage anti-inflammatory activity (AI%), 2 h / Thickness of Edema, 2 h / percentage anti-inflammatory activity (AI%), 4 h / Thickness of Edema, 4 h / percentage anti-inflammatory activity (AI%), 6 h / Thickness of Edema, 6 h / percentage anti-inflammatory activity (AI%), 8 h / Thickness of Edema, 8 h: 10 µmol/kg b.wt po; for Thickness of Edema, 0 h / Thickness of Edema, 2 h / Thickness of Edema, 4 h / Thickness of Edema, 6 h / Thickness of Edema, 8 h: mean ± SEM, n = 5; for percentage anti-inflammatory activity (AI%), 2 h / Thickness of Edema, 2 h: 2 h after carrageenan; for percentage anti-inflammatory activity (AI%), 4 h / Thickness of Edema, 4 h: 4 h after carrageenan; for percentage anti-inflammatory activity (AI%), 6 h / Thickness of Edema, 6 h: 6 h after carrageenan; for percentage anti-inflammatory activity (AI%), 8 h / Thickness of Edema, 8 h: 8 h after carrageenan; for ED50: Mus musculus, paw edema inhibition 8 h after carrageenan, doses 5, 10, 20, 30 and 40 µmol/kg, read-out: ED50 (95% Confidence Level)

SMILES | SI COX-1/COX-2 (human COX-2) | IC50 (human COX-2) [nM] | IC50 [1] [nM] | % Inhibition of PGE2 production (prostaglandin E2 (PGE2)) [%] | PGE2 Serum Conc. (prostaglandin E2 (PGE2)) | Thickness of Edema, 0 h [2] [mm] | percentage anti-inflammatory activity (AI%), 2 h [2] [%] | Thickness of Edema, 2 h [2] [mm] | percentage anti-inflammatory activity (AI%), 4 h [2] [%] | Thickness of Edema, 4 h [2] [mm] | percentage anti-inflammatory activity (AI%), 6 h [2] [%] | Thickness of Edema, 6 h [2] [mm] | percentage anti-inflammatory activity (AI%), 8 h [2] [%] | Thickness of Edema, 8 h [2] [mm] | ED50 [2] [µmol/kg] | melting point [°C] | % Inhibition of PGE2 production (prostaglandin E2 (PGE2); listed as celecoxib) [%]
CC(=NNC(=O)C(C)c1ccc(CC(C)C)cc1)c1nnn(-c2ccc(S(=O)(=O)Nc3nccs3)cc2)c1C (stereo not drawn) [Compound 6b, 4-(4-(1-(2-(2-(4-Isobutylphenyl)propanoyl)hydrazineylidene)ethyl)-5-methyl-1H-1,2,3-triazol-1-yl)-N-(thiazol-2-yl)benzenesulfonamide] | 329 and 329.25 | 40 ± 0.7 | 13170 ± 120 | 90.70 | 68.388 ± 7.13 ^c,d pg/mL | 2.14 ± 0.006 | 86.75 | 2.34 ± 0.009 | 94.51 | 2.23 ± 0.009 | 97.69 | 2.18 ± 0.009 | 99.45 | 2.15 ± 0.007 | 11.7 | – | –
CC(=NNC(=O)Cc1ccccc1Nc1c(Cl)cccc1Cl)c1nnn(-c2ccc(S(N)(=O)=O)cc2)c1C [Compound 6d, 4-(4-(1-(2-(2-(2-((2,6-Dichlorophenyl)amino)phenyl)acetyl)hydrazineylidene)ethyl)-5-methyl-1H-1,2,3-triazol-1-yl)benzenesulfonamide] | 105 | 80 ± 0.9 | 8400 ± 57.7 | – | – | – | – | – | – | – | – | – | – | – | – | 241 to 243 | –
CC(=NNC(=O)C(C)c1ccc(CC(C)C)cc1)c1nnn(-c2ccc(S(N)(=O)=O)cc2)c1C (stereo not drawn) [Compound 6a, 4-(4-(1-(2-(2-(4-Isobutylphenyl)propanoyl)hydrazineylidene)ethyl)-5-methyl-1H-1,2,3-triazol-1-yl)benzenesulfonamide] | 114.13 | 80 ± 0.6 | 9130 ± 88.2 | – | – | – | – | – | – | – | – | – | – | – | – | 205 to 207 | –
CC(=NNC(=O)c1ccccc1O)c1nnn(-c2ccc(S(=O)(=O)Nc3nccc(C)n3)cc2)c1C [Compound 6j, 4-(4-(1-(2-(2-Hydroxybenzoyl)hydrazineylidene)ethyl)-5-methyl-1H-1,2,3-triazol-1-yl)-N-(4-methylpyrimidin-2-yl)benzenesulfonamide] | 312 and 312.5 | 40 ± 0.6 | 12500 ± 57.7 | 86.34 | 100.435 ± 5.66 ^c,d pg/mL | 2.08 ± 0.007 | 73.51 | 2.48 ± 0.005 | 82.32 | 2.37 ± 0.009 | 88.44 | 2.28 ± 0.011 | 91.21 | 2.24 ± 0.009 | 13.4 | – | –
Cc1ccnc(NS(=O)(=O)c2ccc(N=[N+]=[N-])cc2)n1 [Compound 1d, 4-Azido-N-(4-methylpyrimidin-2-yl)benzenesulfonamide] | 46 | 100 ± 3.3 | 4600 ± 115 | – | – | – | – | – | – | – | – | – | – | – | – | – | –
O=C(O)Cc1ccccc1Nc1c(Cl)cccc1Cl [Diclofenac, diclofenac, reference compound] | – | – | – | 72.27 | 203.973 ± 6.35 ^c,d pg/mL | 2.08 ± 0.006 | 41.72 | 2.96 ± 0.009 | 55.49 | 2.81 ± 0.009 | 67.63 | 2.64 ± 0.01 | 72.53 | 2.58 ± 0.01 | 18.4 | – | –
CC(=NNC(=O)Cc1ccccc1Nc1c(Cl)cccc1Cl)c1nnn(-c2ccc(S(=O)(=O)Nc3nccs3)cc2)c1C [Compound 6e, 4-(4-(1-(2-(2-(2-((2,6-Dichlorophenyl)amino)phenyl)acetyl)hydrazineylidene)ethyl)-5-methyl-1H-1,2,3-triazol-1-yl)-N-(thiazol-2-yl)benzenesulfonamide] | 204 and 204.6 | 50 ± 0.6 | 10230 ± 33.3 | 74.80 | 185.329 ± 6.79 ^c,d pg/mL | 2.12 ± 0.007 | 58.28 | 2.75 ± 0.008 | 68.90 | 2.63 ± 0.010 | 75.72 | 2.54 ± 0.009 | 78.02 | 2.52 ± 0.006 | 18.2 | – | –
[N-]=[N+]=Nc1ccc(S(=O)(=O)Nc2ncccn2)cc1 [Compound 1c, 4-Azido-N-(pyrimidin-2-yl)benzenesulfonamide] | 65.89 | 90 ± 0.6 | 5930 ± 88.2 | – | – | – | – | – | – | – | – | – | – | – | – | – | –
Cc1ccc(-c2cc(C(F)(F)F)nn2-c2ccc(S(N)(=O)=O)cc2)cc1 [Celecoxib, celecoxib, reference compound] | – | – | – | 78.62 | 157.245 ± 7.33 ^c,d pg/mL | 2.10 ± 0.005 | 70.86 | 2.54 ± 0.007 | 79.27 | 2.44 ± 0.011 | 87.28 | 2.32 ± 0.010 | 89.01 | 2.30 ± 0.009 | 16.2 | – | 78.62
